This series can be described thus: solubility study in acetic acid and ionic liquid solvent. The series is classed as physicochemical. The conditions noted are these: ionic liquid solvent compared with acetic acid; FIG. 4. An excerpt:
Two samplers were used for different purposes. A custom Titanium sampler was fabricated by Parr Instrument with a 2 μm Titanium filter included to separate solid and liquid phase at operating temperature for studying reaction kinetics. A custom Titanium sampler, larger in size but with no filter attached, was used for a solubility study. For the solubility study, the solvent and solute were loaded in the reactor and heated to the desired temperature, and maintained for a certain time to ensure an equilibrium was established. Afterwards, sufficient time was allowed for the solid to settle before a sample was taken. Solubility was compared to another study that tested terephthalic acid solubility in acetic acid.

Consider `O=Cc1ccc(C(=O)O)cc1` [4-CBA, 4-carboxybenzaldehyde], for which the solubility result was “greater solubility in ionic liquid than in acetic acid”.

With `O=C(O)c1ccc(C(=O)O)cc1` [terephthalic acid, 1,4-benzenedicarboxylic acid], the solubility result is “greater solubility in ionic liquid than in acetic acid”.

(Values after patent publication US9233905B2, “Oxidation and crystallization process for aromatic carboxylic acid production” (UOP LLC, priority 2012, dated 2016).)
